In patent publication US20240262815A1, “HETEROARYL DERIVATIVE, METHOD FOR PREPARING SAME, AND PHARMACEUTICAL COMPOSITION COMPRISING SAME AS ACTIVE INGREDIENT” (VORONOI INC., priority 2021, published 2024):

Columns and labels:
[1] = test system: SK-BR-3 cancer cells; test: Inhibitory activity against proliferation of SK-BR-3 cancer cells (CellTiter-Glo); type: cell-based; details: Homo sapiens, SK-BR-3, 120 h, ErbB2-overexpressing SK-BR-3 cells, 120 hours after treatment
Procedure, shortened: (§1)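 Cells seeded 48 h before dosing (SK-BR-3 in McCOY'S 5A + 10% FBS; BT-474 in RPMI-1640 + 20% FBS), then exposed 120 h to 12 concentrations, 0.2 nM-5 μM final. Viability by CellTiter-Glo luminescence; GI50 from growth rate vs control, triplicate runs.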

[2] = test system: BT-474 cancer cells; test: Inhibitory activity against proliferation of BT-474 cancer cells (CellTiter-Glo); type: cell-based; details: Homo sapiens, BT-474 ErbB2-overexpressing cancer cells, 120 hours after treatment
Procedure, shortened: as §1

SMILES	GI50 [1] [µM]	GI50 [2] [µM]
C=CC(=O)Nc1cc(Nc2cc(N3OCC[C@@H]3c3cccc(C#Cc4cccc(F)c4)c3)ncn2)c(OC)cc1N1CCN(C)CC1 [Example 314, (R)-N-(5-((6-(3-(3-((3-fluorophen-yl)ethynyl)phenyl)-isoxazolidin-2-yl)-pyrimidin-4-yl)-amino)-4-methoxy-2-(4-methylpiper-azin-1-yl)phenyl)-acrylamide]	0.05 to 0.5	0.05 to 0.5
C=CC(=O)Nc1cc(Nc2cc(N3OCC[C@@H]3c3cccc(C#Cc4cccc(O)c4)c3)ncn2)c(OC)cc1N1CCN(C)CC1 [Example 315, (R)-N-(5-((6-(3-(3-((3-hydroxy-phenyl)ethynyl)-phenyl)isoxazol-idin-2-yl)pyrim-idin-4-yl)amino)-4-methoxy-2-(4-methylpiperazin-1-yl)phenyl)acryl-amide]	0.5 to 5	0.05 to 0.5
C=CC(=O)Nc1cc(Nc2cc(N3OCC[C@@H]3c3cccc(-c4cccc(F)c4)c3)ncn2)c(OC)cc1N1CCN2CCCC2C1 (stereo partly drawn) [Example 318, N-(5-((6-((R)-3-(3′-fluoro-[1,1′-biphenyl]-3-yl)-isoxazolidin-2-yl)-pyrimidin-4-yl)-amino)-2-(hexa-hydropyrrolo[1,2-a]pyrazin-2(1H)-yl)-4-methoxy-phenyl)acrylamide]	0.05 to 0.5	< 0.05
C=CC(=O)Nc1cc(Nc2cc(N3OCC[C@@H]3c3cccc(-c4cccc(F)c4)c3)ncn2)c(OC)cc1N1CC2(CN(C(=O)COC)C2)C1 [Example 323, (R)-N-(5-((6-(3-(3′-fluoro-[1,1′-biphenyl]-3-yl)-isoxazolidin-2-yl)-pyrimidin-4-yl)-amino)-4-methoxy-2-(6-(2-methoxy-acetyl)-2,6-diaza-spiro[3.3]heptan-2-yl)phenyl)acryl-amide]	0.05 to 0.5	< 0.05
C=CC(=O)Nc1cc(Nc2cc(N3OCCC3c3cccc(OCc4ccccn4)c3)ncn2)c(OC)cc1N1CCN(C)CC1 (centres unmarked) [Example compound 96, N-(4-methoxy-2-(4-methylpiperazin-1-yl)-5-((6-(3-(3-(pyridin-2-ylmethoxy)phenyl)isoxazolidin-2-yl)pyrimidin-4-yl)amino)phenyl)acrylamide]	< 0.05	< 0.05
C=CC(=O)Nc1cc(Nc2cc(N3OCCC3c3cccc(OCc4ccccn4)c3)ncn2)c(OC)cc1N1CCC(N2CCN(C3CC3)CC2)CC1 (centres unmarked) [Example compound 98, N-(2-(4-(4-cyclopropylpiperazin-1-yl)piperidin-1-yl)-4-methoxy-5-((6-(3-(3-(pyridin-2-ylmethoxy)phenyl)isoxazolidin-2-yl)pyrimidin-4-yl)amino)phenyl)acrylamide]	< 0.05	< 0.05
C=CC(=O)Nc1cc(Nc2cc(N3OCCC3c3ccc(Cl)c(OCc4cccc(F)c4)c3)ncn2)c(OC)cc1N1CCC(N2CCN(C3CC3)CC2)CC1 (centres unmarked) [Example compound 116, N-(5-((6-(3-(4-chloro-3-((3-fluorobenzyl)oxy)phenyl)isoxazolidin-2-yl)pyrimidin-4-yl)amino)-2-(4-(4-cyclopropylpiperazin-1-yl)piperidin-1-yl)-4-methoxyphenyl)acrylamide]	< 0.05	0.05 to 0.5
C=CC(=O)Nc1cc(Nc2cc(N3OCC[C@@H]3c3cccc(-c4cccs4)c3)ncn2)c(OC)cc1N1CCC(N2CCN(C3CC3)CC2)CC1 [Example compound 135, (R)-N-(2-(4-(4-cyclopropylpiperazin-1-yl)piperidin-1-yl)-4-methoxy-5-((6-(3-(3-(thiophen-2-yl)phenyl)isoxazolidin-2-yl)pyrimidin-4-yl)amino)phenyl)acrylamide]	< 0.05	< 0.05
C=CC(=O)Nc1cc(Nc2cc(N3OCCC3c3ccc(F)c(OCc4cccc(F)c4)c3)ncn2)c(OC)cc1N1CCC(N2CCN(C3CC3)CC2)CC1 (centres unmarked) [Example compound 150, N-(2-(4-(4-cyclopropylpiperazin-1-yl)piperidin-1-yl)-5-((6-(3-(4-fluoro-3-((3-fluorobenzyl)oxy)phenyl)isoxazolidin-2-yl)pyrimidin-4-yl)amino)-4-methoxyphenyl)acrylamide]	< 0.05	< 0.05
C=CC(=O)Nc1cc(Nc2cc(N3OCCC3c3ccc(F)c(OCc4cccc(F)c4)c3)ncn2)c(OC)cc1N1CCN(C)CC1 (centres unmarked) [Example compound 151, N-(5-((6-(3-(4-fluoro-3-((3-fluorobenzyl)oxy)phenyl)isoxazolidin-2-yl)pyrimidin-4-yl)amino)-4-methoxy-2-(4-methylpiperazin-1-yl)phenyl)acrylamide]	< 0.05	< 0.05

The remaining lines, values ahead:

GI50 [1] [µM]	GI50 [2] [µM]	SMILES
< 0.05	< 0.05	C=CC(=O)Nc1cc(Nc2cc(N3OCC[C@@H]3c3ccc(F)c(-c4cccc(F)c4)c3)ncn2)c(OC)cc1N(C)CCN(C)C [Example 310, (R)-N-(5-((6-(3-(3′,6-difluoro-[1,1′-biphenyl]-3-yl)-isoxazolidin-2-yl)-pyrimidin-4-yl)-amino)-2-((2-(dimethylamino)-ethyl)(methyl)-amino)-4-methoxy-phenyl)acrylamide]
< 0.05	< 0.05	C=CC(=O)Nc1cc(Nc2cc(N3OCC[C@@H]3c3cccc(-c4cccc(F)c4)c3)ncn2)c(OC)cc1N1CCC(N2CCC2)CC1 [Example 317, (R)-N-(2-(4-(azeti-din-1-yl)piperidin-1-yl)-5-((6-(3-(3′-fluoro-[1,1′-biphen-yl]-3-yl)isoxazol-idin-2-yl)pyrim-idin-4-yl)amino)-4-methoxyphen-yl)acrylamide]
< 0.05	< 0.05	C=CC(=O)Nc1cc(Nc2cc(N3OCC[C@@H]3c3cccc(-c4cccc(F)c4)c3)ncn2)c(OC)cc1N1CCN(C2CC2)[C@@H](C)C1 [Example 320, N-(2-((S)-4-cyclo-propyl-3-methyl-piperazin-1-yl)-5-((6-((R)-3-(3′-fluoro-[1,1′-biphen-yl]-3-yl)isoxazol-idin-2-yl)pyrim-idin-4-yl)amino)-4-methoxyphen-yl)acrylamide]
< 0.05	< 0.05	C=CC(=O)Nc1cc(Nc2cc(N3OCC[C@@H]3c3cccc(-c4cccc(F)c4)c3)ncn2)c(OC)cc1N1CC2(C1)CN(S(C)(=O)=O)C2 [Example 322, (R)-N-(5-((6-(3-(3′-fluoro-[1,1′-biphenyl]-3-yl)-isoxazolidin-2-yl)-pyrimidin-4-yl)-amino)-4-methoxy-2-(6-(methylsulfon-yl)-2,6-diazaspiro-[3.3]heptan-2-yl)-phenyl)acrylamide]
< 0.05	< 0.05	C=CC(=O)Nc1cc(Nc2cc(N3OCC[C@@H]3c3cccc(-c4cccc(F)c4)c3)ncn2)c(OC)cc1N1CCC(N2CCN(S(C)(=O)=O)CC2)CC1 [Example 324, (R)-N-(5-((6-(3-(3′-fluoro-[1,1′-biphenyl]-3-yl)-isoxazolidin-2-yl)-pyrimidin-4-yl)-amino)-4-methoxy-2-(4-(4-(methyl-sulfonyl)piperazin-1-yl)piperidin-1-yl)-phenyl)acrylamide]
< 0.05	< 0.05	C=CC(=O)Nc1cc(Nc2cc(N3OCCC3c3cccc(OCc4ccccn4)c3)ncn2)c(OC)cc1N(C)CCN(C)C (centres unmarked) [Example compound 95, N-(2-((2-(dimethylamino)ethyl)(methyl)amino)-4-methoxy-5-((6-(3-(3-(pyridin-2-ylmethoxy)phenyl)isoxazolidin-2-yl)pyrimidin-4-yl)amino)phenyl)acrylamide]
